Calls of active or inactive are those of the source. No cut-off for these calls is given here.
Legend:
MIA PaCa-2 = experiment: Cytotoxicity against human MIAPaCa2 cells after 72 hrs by MTT assay; type: functional, cell-based; details: MIA PaCa-2, 72 h
ASPC1 [1] = experiment: Upregulation of NOXA in human AsPC1 cells at 6 to 10 uM after 24 hrs by Western blot analysis; type: functional, cell-based
ASPC1 [2] = experiment: Cell cycle arrest in human AsPC1 cells assessed as G2/M phase cells at 8 uM after 24 hrs by flow cytometric analysis (reference value: 20.7%); type: functional
ASPC1 [3] = experiment: Induction of apoptosis in human AsPC1 cells assessed as sub-G1 phase cells at 2 uM after 24 hrs by flow cytometric analysis (reference value: 1%); type: functional
ASPC1 [4] = experiment: Cytotoxicity against human AsPC1 cells after 72 hrs by MTT assay; type: functional, cell-based; details: ASPC1, 72 h
ASPC1 [5] = experiment: Induction of apoptosis in human AsPC1 cells assessed as sub-G1 phase cells at 10 uM after 24 hrs by flow cytometric analysis (reference value: 1%); type: functional
ASPC1 [6] = experiment: Ratio of ursolic acid IC50 to compound IC50 for human AsPC1 cells; type: functional
ASPC1 [7] = experiment: Cell cycle arrest in human AsPC1 cells assessed as G1 phase cells at 10 uM after 24 hrs by flow cytometric analysis (reference value: 25.4%); type: functional
ASPC1 [8] = experiment: Cell cycle arrest in human AsPC1 cells assessed as G2/M phase cells at 4 uM after 24 hrs by flow cytometric analysis (reference value: 20.7%); type: functional
ASPC1 [9] = experiment: Induction of apoptosis in human AsPC1 cells assessed as sub-G1 phase cells at 4 uM after 24 hrs by flow cytometric analysis (reference value: 1%); type: functional
ASPC1 [10] = experiment: Cell cycle arrest in human AsPC1 cells assessed as G1 phase cells at 2 uM after 24 hrs by flow cytometric analysis (reference value: 25.4%); type: functional
ASPC1 [11] = experiment: Cell cycle arrest in human AsPC1 cells assessed as G2/M phase cells at 10 uM after 24 hrs by flow cytometric analysis (reference value: 20.7%); type: functional
ASPC1 [12] = experiment: Cell cycle arrest in human AsPC1 cells assessed as G2/M phase cells at 2 uM after 24 hrs by flow cytometric analysis (reference value: 20.7%); type: functional
ASPC1 [13] = experiment: Induction of apoptosis in human AsPC1 cells assessed as sub-G1 phase cells at 6 uM after 24 hrs by flow cytometric analysis (reference value: 1%); type: functional
ASPC1 [14] = experiment: Cell cycle arrest in human AsPC1 cells assessed as G1 phase cells at 8 uM after 24 hrs by flow cytometric analysis (reference value: 25.4%); type: functional
ASPC1 [15] = experiment: Upregulation of p53 in human AsPC1 cells at 2 to 10 uM after 24 hrs by Western blot analysis; type: functional, cell-based
ASPC1 [16] = experiment: Cell cycle arrest in human AsPC1 cells assessed as G1 phase cells at 6 uM after 24 hrs by flow cytometric analysis (reference value: 25.4%); type: functional
ASPC1 [17] = experiment: Upregulation of p21 in human AsPC1 cells at 6 to 10 uM after 24 hrs by Western blot analysis; type: functional, cell-based
ASPC1 [18] = experiment: Cell cycle arrest in human AsPC1 cells assessed as G2/M phase cells at 6 uM after 24 hrs by flow cytometric analysis (reference value: 20.7%); type: functional
ASPC1 [19] = experiment: Cell cycle arrest in human AsPC1 cells assessed as S phase cells at 4 uM after 24 hrs by flow cytometric analysis (reference value: 12.6%); type: functional
ASPC1 [20] = experiment: Downregulation of Mcl1 in human AsPC1 cells at 2 to 10 uM after 24 hrs by Western blot analysis; type: functional, cell-based
PANC-1 = experiment: Cytotoxicity against human PANC1 cells after 72 hrs by MTT assay; type: functional, cell-based; details: PANC-1, 72 h
PC-3 = experiment: Cytotoxicity against human PC3 cells after 72 hrs by MTT assay; type: functional, cell-based; details: PC-3, 72 h
ASPC1 [21] = experiment: Cell cycle arrest in human AsPC1 cells assessed as G1 phase cells at 4 uM after 24 hrs by flow cytometric analysis (reference value: 25.4%); type: functional
ASPC1 [22] = experiment: Cell cycle arrest in human AsPC1 cells assessed as S phase cells at 10 uM after 24 hrs by flow cytometric analysis (reference value: 12.6%); type: functional
MCF7 = experiment: Cytotoxicity against human MCF7 cells after 72 hrs by MTT assay; type: functional, cell-based; details: MCF7, 72 h
ASPC1 [23] = experiment: Induction of apoptosis in human AsPC1 cells assessed as sub-G1 phase cells at 8 uM after 24 hrs by flow cytometric analysis (reference value: 1%); type: functional
ASPC1 [24] = experiment: Cell cycle arrest in human AsPC1 cells assessed as S phase cells at 6 uM after 24 hrs by flow cytometric analysis (reference value: 12.6%); type: functional
ASPC1 [25] = experiment: Cell cycle arrest in human AsPC1 cells assessed as S phase cells at 8 uM after 24 hrs by flow cytometric analysis (reference value: 12.6%); type: functional
HepG2 = experiment: Cytotoxicity against human HepG2 cells after 72 hrs by MTT assay; type: functional, cell-based; details: HepG2, 72 h
A549 = experiment: Cytotoxicity against human A549 cells after 72 hrs by MTT assay; type: functional, cell-based; details: A549, 72 h
ASPC1 [26] = experiment: Cell cycle arrest in human AsPC1 cells assessed as S phase cells at 2 uM after 24 hrs by flow cytometric analysis (reference value: 12.6%); type: functional

Structure (SMILES): COC(=O)[C@]12CC[C@@H](C)[C@H](C)[C@H]1C1=CC[C@@H]3[C@@]4(C)C/C(=C/n5cnnc5)C(=O)C(C)(C)[C@@H]4CC[C@@]3(C)[C@]1(C)CC2
- IC50 (MIA PaCa-2): 4 µM
- Activity (ASPC1 [1]): Active
- Activity (ASPC1 [2]): 23.4%
- Activity (ASPC1 [3]): 0.7%
- IC50 (ASPC1 [4]): 1900 nM
- Activity (ASPC1 [5]): 13.2%
- Ratio IC50 (ASPC1 [6]): 7
- Activity (ASPC1 [7]): 27.3%
- Activity (ASPC1 [8]): 14.7%
- Activity (ASPC1 [9]): 0.5%
- Activity (ASPC1 [10]): 23.9%
- Activity (ASPC1 [11]): 28.8%
- Activity (ASPC1 [12]): 14.9%
- Activity (ASPC1 [13]): 1.2%
- Activity (ASPC1 [14]): 31.9%
- Activity (ASPC1 [15]): Active
- Activity (ASPC1 [16]): 36.6%
- Activity (ASPC1 [17]): Active
- Activity (ASPC1 [18]): 24.1%
- Activity (ASPC1 [19]): 9.6%
- Activity (ASPC1 [20]): inactive
- IC50 (PANC-1): 3.5 µM
- IC50 (PC-3): 3000 nM
- Activity (ASPC1 [21]): 27.9%
- Activity (ASPC1 [22]): 10.5%
- IC50 (MCF7): 2300 nM
- Activity (ASPC1 [23]): 3.4%
- Activity (ASPC1 [24]): 9.5%
- Activity (ASPC1 [25]): 10.1%
- IC50 (HepG2): 3.2 µM
- IC50 (A549): 4.9 µM
- Activity (ASPC1 [26]): 9.1%

— ChEMBL document CHEMBL2146453, “Synthesis of novel ursolic acid heterocyclic derivatives with improved abilities of antiproliferation and induction of p53, p21waf1 and NOXA in pancreatic cancer cells” (Bioorg Med Chem, 2012)
